Reference: PubChem BioAssay (NCI)
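96-well plates; 48 h exposure; 5 concentrations. Endpoints by linear interpolation between flanking doses. Not reached: highest tested concentration assigned. TGI marks complete inhibition of growth.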

Assays:
Experiment in all cases: NCI-60 cell line screen, 48 h
HOP-92 NSCLC = test system: HOP-92 NSCLC
MALME-3M melanoma = test system: MALME-3M melanoma
HOP-62 NSCLC = test system: HOP-62 NSCLC
OVCAR-8 ovarian = test system: OVCAR-8 ovarian
HCT-15 colon = test system: HCT-15 colon
LOX IMVI melanoma = test system: LOX IMVI melanoma
COLO 205 colon = test system: COLO 205 colon
OVCAR-4 ovarian = test system: OVCAR-4 ovarian
UO-31 renal = test system: UO-31 renal
LXFL 529 NSCLC = test system: LXFL 529 NSCLC
NCI-H522 lung = test system: NCI-H522 lung
UACC-257 melanoma = test system: UACC-257 melanoma
CCRF-CEM leukemia = test system: CCRF-CEM leukemia
TK-10 renal = test system: TK-10 renal
NCI-H460 lung = test system: NCI-H460 lung
ACHN renal = test system: ACHN renal
SK-OV-3 ovarian = test system: SK-OV-3 ovarian
M14 melanoma = test system: M14 melanoma
SK-MEL-28 melanoma = test system: SK-MEL-28 melanoma
CAKI-1 renal = test system: CAKI-1 renal
UACC-62 melanoma = test system: UACC-62 melanoma
SK-MEL-5 melanoma = test system: SK-MEL-5 melanoma
SNB-78 CNS = test system: SNB-78 CNS
OVCAR-3 ovarian = test system: OVCAR-3 ovarian
HCC-2998 colon = test system: HCC-2998 colon
SF-268 CNS = test system: SF-268 CNS
A549 NSCLC = test system: A549 NSCLC
786-0 renal = test system: 786-0 renal
OVCAR-5 ovarian = test system: OVCAR-5 ovarian
DLD-1 colon = test system: DLD-1 colon
HT29 colon = test system: HT29 colon
MOLT-4 leukemia = test system: MOLT-4 leukemia
RPMI-8226 leukemia = test system: RPMI-8226 leukemia
DMS 114 small cell lung = test system: DMS 114 small cell lung
IGROV1 ovarian = test system: IGROV1 ovarian
SNB-19 CNS = test system: SNB-19 CNS
SR leukemia = test system: SR leukemia
NCI-H226 lung = test system: NCI-H226 lung
U251 CNS = test system: U251 CNS
EKVX NSCLC = test system: EKVX NSCLC
SW-620 colon = test system: SW-620 colon
SN12C renal = test system: SN12C renal
NCI-H23 lung = test system: NCI-H23 lung
SNB-75 CNS = test system: SNB-75 CNS
XF 498 CNS = test system: XF 498 CNS
HL-60(TB) leukemia = test system: HL-60(TB) leukemia
SK-MEL-2 melanoma = test system: SK-MEL-2 melanoma
SF-295 CNS = test system: SF-295 CNS
KM20L2 colon = test system: KM20L2 colon
HCT-116 colon = test system: HCT-116 colon
KM12 colon = test system: KM12 colon
K-562 leukemia = test system: K-562 leukemia
M19-MEL melanoma = test system: M19-MEL melanoma
DMS 273 small cell lung = test system: DMS 273 small cell lung
HOP-18 NSCLC = test system: HOP-18 NSCLC
SF-539 CNS = test system: SF-539 CNS
A498 renal = test system: A498 renal
T-47D breast = test system: T-47D breast
HS 578T breast = test system: HS 578T breast
BT-549 breast = test system: BT-549 breast
NCI/ADR-RES ovarian = test system: NCI/ADR-RES ovarian
MDA-MB-435 = test system: MDA-MB-435
MCF7 breast = test system: MCF7 breast
MDA-MB-231 breast = test system: MDA-MB-231 breast
RXF 393 renal = test system: RXF 393 renal
MDA-N = test system: MDA-N
DU-145 prostate = test system: DU-145 prostate
PC-3 prostate = test system: PC-3 prostate

`CCOC(=O)/C(I)=C/c1cc(OC)c(OC)c(OC)c1` was tested. Which TGI (HOP-92 NSCLC) did it give?
The TGI was 27.1 µM.

What about the TGI (MALME-3M melanoma) of the same compound?
The TGI was 26.2 µM.

What about the TGI (HOP-62 NSCLC) of the same compound?
The TGI was 96.1 µM.

What about the TGI (OVCAR-8 ovarian) of the same compound?
The TGI was 38.8 µM.

And the TGI (HCT-15 colon)?
The TGI was 17.1 µM.

What about the TGI (LOX IMVI melanoma) of the same compound?
The TGI was 5.01 µM.

What about the TGI (COLO 205 colon) of the same compound?
The TGI was 18.2 µM.

And the TGI (OVCAR-4 ovarian)?
The TGI was 52.4 µM.

And the TGI (UO-31 renal)?
Its TGI is 19.1 µM.

And the TGI (LXFL 529 NSCLC)?
The TGI was 26.8 µM.

What about the TGI (NCI-H522 lung) of the same compound?
Its TGI is 12.9 µM.

What about the TGI (UACC-257 melanoma) of the same compound?
The TGI was 25.7 µM.

And the TGI (CCRF-CEM leukemia)?
The TGI was 8.6 µM.

What about the TGI (TK-10 renal) of the same compound?
Its TGI is 35.1 µM.

And the TGI (NCI-H460 lung)?
The TGI was over 100 µM.

And the TGI (ACHN renal)?
Its TGI is 28.2 µM.

What about the TGI (SK-OV-3 ovarian) of the same compound?
Its TGI is over 100 µM.

And the TGI (M14 melanoma)?
Its TGI is 14.7 µM.

And the TGI (SK-MEL-28 melanoma)?
Its TGI is 7.88 µM.

And the TGI (CAKI-1 renal)?
The TGI was 16.3 µM.

And the TGI (UACC-62 melanoma)?
Its TGI is 16.1 µM.

What about the TGI (SK-MEL-5 melanoma) of the same compound?
The TGI was 24.5 µM.

What about the TGI (SNB-78 CNS) of the same compound?
The TGI was over 100 µM.

And the TGI (OVCAR-3 ovarian)?
The TGI was 14.1 µM.

And the TGI (HCC-2998 colon)?
The TGI was 27.8 µM.

And the TGI (SF-268 CNS)?
Its TGI is 6.73 µM.

What about the TGI (A549 NSCLC) of the same compound?
Its TGI is 22.5 µM.

And the TGI (786-0 renal)?
The TGI was 33 µM.

What about the TGI (OVCAR-5 ovarian) of the same compound?
Its TGI is 20 µM.

What about the TGI (DLD-1 colon) of the same compound?
Its TGI is 35.2 µM.

And the TGI (HT29 colon)?
The TGI was 15.1 µM.

What about the TGI (MOLT-4 leukemia) of the same compound?
The TGI was 40.3 µM.

What about the TGI (RPMI-8226 leukemia) of the same compound?
The TGI was 21.1 µM.

What about the TGI (DMS 114 small cell lung) of the same compound?
Its TGI is 9.49 µM.

And the TGI (IGROV1 ovarian)?
Its TGI is 93.7 µM.

What about the TGI (SNB-19 CNS) of the same compound?
The TGI was 31.8 µM.

What about the TGI (SR leukemia) of the same compound?
Its TGI is 8.8 µM.

What about the TGI (NCI-H226 lung) of the same compound?
Its TGI is 25.9 µM.

What about the TGI (U251 CNS) of the same compound?
The TGI was 18.3 µM.

What about the TGI (EKVX NSCLC) of the same compound?
The TGI was 42.9 µM.

And the TGI (SW-620 colon)?
Its TGI is 11.6 µM.

And the TGI (SN12C renal)?
Its TGI is 24.6 µM.

What about the TGI (NCI-H23 lung) of the same compound?
Its TGI is 14.1 µM.

What about the TGI (SNB-75 CNS) of the same compound?
Its TGI is over 100 µM.

And the TGI (XF 498 CNS)?
Its TGI is 27.5 µM.

What about the TGI (HL-60(TB) leukemia) of the same compound?
Its TGI is 26.1 µM.

What about the TGI (SK-MEL-2 melanoma) of the same compound?
Its TGI is over 100 µM.

What about the TGI (SF-295 CNS) of the same compound?
Its TGI is 54.4 µM.

And the TGI (KM20L2 colon)?
The TGI was 12.4 µM.

What about the TGI (HCT-116 colon) of the same compound?
Its TGI is 12.5 µM.

What about the TGI (KM12 colon) of the same compound?
The TGI was 19.2 µM.

And the TGI (K-562 leukemia)?
Its TGI is over 100 µM.

What about the TGI (M19-MEL melanoma) of the same compound?
The TGI was 19.3 µM.

And the TGI (DMS 273 small cell lung)?
Its TGI is 22.7 µM.

What about the TGI (HOP-18 NSCLC) of the same compound?
The TGI was 24 µM.

And the TGI (SF-539 CNS)?
The TGI was over 100 µM.

What about the TGI (A498 renal) of the same compound?
Its TGI is 91.3 µM.

Which results are given for `COc1ccc2c3c1O[C@H](c1ccc(O)cc1)[C@H]3[N+](C)(C)CC2`?
TGI (HOP-92 NSCLC): > 100 µM; TGI (MALME-3M melanoma): > 100 µM; TGI (HOP-62 NSCLC): > 100 µM; TGI (OVCAR-8 ovarian): > 100 µM; TGI (HCT-15 colon): > 100 µM; TGI (LOX IMVI melanoma): > 100 µM; TGI (COLO 205 colon): > 100 µM; TGI (OVCAR-4 ovarian): > 100 µM; TGI (UO-31 renal): > 100 µM; TGI (NCI-H522 lung): > 100 µM; TGI (T-47D breast): > 100 µM; TGI (UACC-257 melanoma): > 100 µM; TGI (CCRF-CEM leukemia): > 100 µM; TGI (TK-10 renal): > 100 µM; TGI (NCI-H460 lung): > 100 µM; TGI (ACHN renal): > 100 µM; TGI (SK-OV-3 ovarian): > 100 µM; TGI (M14 melanoma): > 100 µM; TGI (SK-MEL-28 melanoma): > 100 µM; TGI (CAKI-1 renal): > 100 µM; TGI (UACC-62 melanoma): > 100 µM; TGI (SK-MEL-5 melanoma): > 100 µM; TGI (OVCAR-3 ovarian): > 100 µM; TGI (HCC-2998 colon): > 100 µM; TGI (SF-268 CNS): > 100 µM; TGI (A549 NSCLC): > 100 µM; TGI (786-0 renal): > 100 µM; TGI (OVCAR-5 ovarian): > 100 µM; TGI (HT29 colon): > 100 µM; TGI (MOLT-4 leukemia): > 100 µM; TGI (RPMI-8226 leukemia): > 100 µM; TGI (HS 578T breast): > 100 µM; TGI (IGROV1 ovarian): > 100 µM; TGI (BT-549 breast): > 100 µM; TGI (NCI/ADR-RES ovarian): > 100 µM; TGI (SNB-19 CNS): > 100 µM; TGI (SR leukemia): > 100 µM; TGI (MDA-MB-435): > 100 µM; TGI (MCF7 breast): > 100 µM; TGI (NCI-H226 lung): > 100 µM; TGI (U251 CNS): > 100 µM; TGI (MDA-MB-231 breast): > 100 µM; TGI (EKVX NSCLC): > 100 µM; TGI (SW-620 colon): > 100 µM; TGI (SN12C renal): > 100 µM; TGI (NCI-H23 lung): > 100 µM; TGI (RXF 393 renal): > 100 µM; TGI (MDA-N): > 100 µM; TGI (SNB-75 CNS): > 100 µM; TGI (HL-60(TB) leukemia): 96.1 µM; TGI (SK-MEL-2 melanoma): > 100 µM; TGI (SF-295 CNS): > 100 µM; TGI (DU-145 prostate): > 100 µM; TGI (HCT-116 colon): > 100 µM; TGI (KM12 colon): > 100 µM; TGI (K-562 leukemia): 88.2 µM; TGI (SF-539 CNS): > 100 µM; TGI (A498 renal): > 100 µM; TGI (PC-3 prostate): > 100 µM
